Results on three molecules are retold here after ChEMBL document CHEMBL1151335, “Clavaric acid: a triterpenoid inhibitor of farnesyl-protein transferase from Clavariadelphus truncatus” (J Nat Prod, 1998).

The species named for one data set is Homo sapiens. Kind of data set: (§1) Inhibition of human recombinant protein farnesyl transferase expressed in Escherichia coli.
Data set [1] addresses T1, Squalene synthase (Homo sapiens) (UniProt P37268).
T1 sequence (whole entry): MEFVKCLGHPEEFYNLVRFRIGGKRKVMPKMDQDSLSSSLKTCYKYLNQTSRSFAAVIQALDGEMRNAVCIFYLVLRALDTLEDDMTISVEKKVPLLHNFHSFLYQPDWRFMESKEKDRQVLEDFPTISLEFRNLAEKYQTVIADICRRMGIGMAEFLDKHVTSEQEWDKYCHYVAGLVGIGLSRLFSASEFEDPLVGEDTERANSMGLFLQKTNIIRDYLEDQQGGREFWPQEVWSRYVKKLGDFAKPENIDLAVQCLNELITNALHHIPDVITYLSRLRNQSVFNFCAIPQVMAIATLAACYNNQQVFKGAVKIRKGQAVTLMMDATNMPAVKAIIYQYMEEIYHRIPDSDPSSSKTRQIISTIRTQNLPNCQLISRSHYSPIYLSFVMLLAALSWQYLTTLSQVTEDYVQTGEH
Kind of data set: Inhibition of squalene synthase.

Data set [2] is described as follows: as §1.
The nature of data set [3]: Cytotoxicity against mouse NIH/3T3 cells at 50 uM. In kind it is cell-based. Conditions: nih3t3, 50 µM.
In another data set the test system is NIH3T3. Kind of data set: Inhibition of Ras expression in mouse NIH/3T3 cells at 50 uM. The class given is functional, cell-based.
Data set [4] in a line: Inhibition of geranylgeranyl protein transferase.

Active and inactive are the calls of the source. No cut-off for these calls is given here.

Regarding `COC(=O)C[C@](C)(O)CC(=O)O[C@@H]1C[C@]2(C)C3=C(CC[C@H]2C(C)(C)C1=O)[C@]1(C)CC[C@H]([C@H](C)CCC(O)C(C)(C)O)[C@@]1(C)CC3` (some centres not stated), the outcome in the data set listed under Homo sapiens was inactive.
Broadly, the IC50 is the concentration that gives 50% inhibition. Take `C[C@H](CCC(O)C(C)(C)O)[C@H]1CC[C@@]2(C)C3=C(CC[C@]12C)[C@@]1(C)C[C@@H](OC(=O)CC(C)(O)CC(=O)O)C(=O)C(C)(C)[C@@H]1CC3` (some centres not stated) [CLAVARIC ACID]: the result in data set [1] and in data set [4] was inactive. Also, the 50% inhibitory concentration (IC50) in data set [2] turned out to be 1.3 µM. Moreover, the Activity entry in data set [3] is recorded as “Non-toxic”. Further, the result in the data set on NIH3T3 was Active.
`C[C@H](CCC(O)C(C)(C)O)[C@H]1CC[C@@]2(C)C3=C(CC[C@]12C)[C@@]1(C)C[C@@H](O)C(=O)C(C)(C)[C@@H]1CC3` (some centres not stated) [CLAVARINONE]: in data set [2], the half-inhibitory concentration (IC50) stood at 10.5 µM.
